ChEMBL document CHEMBL5518237, “Design of Novel 2-Phenylquinazolin-4-amines as Selective CYP1B1 Inhibitors for Overcoming Paclitaxel Resistance in A549 Cells” (J Med Chem, 2024)
The source made the active and inactive calls. No cut-off for these calls is given here.

Columns and labels:
CYP1B1 [1] = target: T1, CYP1B1 (Homo sapiens, UniProt Q16678); test: Inhibition of human recombinant CYP1B1 using 7-ethoxyresorufin as substrate at 0.01 uM preincubated with enzyme for 5 mins followed by fluorescent substrate and NADPH addition and measured after 35 mins by EROD assay; assay type: ADME; details: recombinant CYP1B1, probe 7-ethoxyresorufin, time 40 min
T1 sequence (Q16678 whole entry): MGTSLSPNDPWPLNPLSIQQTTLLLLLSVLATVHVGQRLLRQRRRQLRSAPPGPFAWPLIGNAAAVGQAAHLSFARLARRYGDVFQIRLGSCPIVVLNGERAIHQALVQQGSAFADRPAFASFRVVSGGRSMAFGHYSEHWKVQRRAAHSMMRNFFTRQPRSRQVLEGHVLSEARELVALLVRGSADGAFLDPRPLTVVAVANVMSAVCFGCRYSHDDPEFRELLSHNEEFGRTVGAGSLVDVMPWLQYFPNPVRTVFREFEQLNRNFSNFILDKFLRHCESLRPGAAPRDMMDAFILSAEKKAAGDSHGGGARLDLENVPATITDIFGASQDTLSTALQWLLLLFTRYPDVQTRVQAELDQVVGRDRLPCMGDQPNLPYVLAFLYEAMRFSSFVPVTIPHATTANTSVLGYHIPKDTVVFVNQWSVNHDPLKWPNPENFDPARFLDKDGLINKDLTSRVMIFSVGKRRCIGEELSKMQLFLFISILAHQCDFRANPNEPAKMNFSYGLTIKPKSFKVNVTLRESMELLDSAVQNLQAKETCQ

CYP1B1 [2] = target: T1, CYP1B1; test: Inhibition of human recombinant CYP1B1 using 7-ethoxyresorufin as substrate at 1 uM preincubated with enzyme for 5 mins followed by fluorescent substrate and NADPH addition and measured after 35 mins by EROD assay; assay type: ADME; details: recombinant CYP1B1, probe 7-ethoxyresorufin, time 40 min
Cytochrome P450 1B1 = target: T2, Cytochrome P450 1B1 (Homo sapiens, UniProt Q16678); test: Inhibition of human recombinant CYP1B1 using 7-ethoxyresorufin as substrate preincubated with enzyme for 5 mins followed by fluorescent substrate and NADPH addition and measured after 35 mins by EROD assay; assay type: ADME
T2 sequence (Q16678 whole entry): T1 sequence (Q16678 whole entry)

Cytochrome P450 1A1 = target: T3, Cytochrome P450 1A1 (Homo sapiens, UniProt P04798); test: Inhibition of human recombinant CYP1A1 using 7-ethoxyresorufin as substrate preincubated with enzyme for 5 mins followed by fluorescent substrate and NADPH addition and measured after 15 mins by EROD assay; assay type: ADME
T3 sequence (P04798 whole entry): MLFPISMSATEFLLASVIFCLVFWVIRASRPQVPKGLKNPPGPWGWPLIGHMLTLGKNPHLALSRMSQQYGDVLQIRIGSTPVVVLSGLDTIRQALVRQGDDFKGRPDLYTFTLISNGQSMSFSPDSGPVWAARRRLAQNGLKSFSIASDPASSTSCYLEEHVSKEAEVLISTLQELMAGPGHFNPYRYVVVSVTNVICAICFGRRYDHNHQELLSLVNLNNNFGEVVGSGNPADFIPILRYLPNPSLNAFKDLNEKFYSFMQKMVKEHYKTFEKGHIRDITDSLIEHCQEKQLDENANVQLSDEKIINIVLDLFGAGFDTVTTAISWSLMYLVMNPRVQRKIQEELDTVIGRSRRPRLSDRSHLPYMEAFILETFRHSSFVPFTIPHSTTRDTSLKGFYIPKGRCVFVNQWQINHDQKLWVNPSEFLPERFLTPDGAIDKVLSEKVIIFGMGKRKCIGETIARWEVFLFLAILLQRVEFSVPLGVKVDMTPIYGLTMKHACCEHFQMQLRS

Cytochrome P450 1A2 = target: T4, Cytochrome P450 1A2 (Homo sapiens, UniProt P05177); test: Inhibition of human recombinant CYP1A2 using 7-ethoxyresorufin as substrate preincubated with enzyme for 5 mins followed by fluorescent substrate and NADPH addition and measured after 50 mins by EROD assay; assay type: ADME
T4 sequence (P05177 whole entry): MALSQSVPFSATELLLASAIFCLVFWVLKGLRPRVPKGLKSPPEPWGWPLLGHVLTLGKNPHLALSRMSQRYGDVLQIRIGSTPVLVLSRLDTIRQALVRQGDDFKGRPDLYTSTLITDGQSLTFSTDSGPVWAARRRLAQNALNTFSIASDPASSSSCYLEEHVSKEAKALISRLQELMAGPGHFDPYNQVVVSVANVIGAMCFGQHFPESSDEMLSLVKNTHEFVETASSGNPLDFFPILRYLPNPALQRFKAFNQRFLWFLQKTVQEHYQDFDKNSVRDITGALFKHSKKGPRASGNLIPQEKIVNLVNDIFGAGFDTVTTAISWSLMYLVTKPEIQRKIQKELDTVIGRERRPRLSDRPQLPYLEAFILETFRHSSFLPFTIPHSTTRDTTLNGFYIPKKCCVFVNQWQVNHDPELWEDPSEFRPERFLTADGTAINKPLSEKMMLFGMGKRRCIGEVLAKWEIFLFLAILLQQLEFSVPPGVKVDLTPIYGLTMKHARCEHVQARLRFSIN

[3] = (§1) Selectivity ratio of IC50 for Inhibition of human recombinant CYP1A1 to IC50 for Inhibition of human recombinant CYP1B1; assay type: ADME; details: recombinant enzyme
CYP1A2 versus CYP1B1 = test: Selectivity ratio of IC50 for Inhibition of human recombinant CYP1A2 to IC50 for Inhibition of human recombinant CYP1B1; assay type: ADME; details: recombinant CYP1A2 and recombinant CYP1B1, read-out: Ratio IC50
[4] = n-Octanol/water partition coefficient, logP of the compound by HPLC analysis; assay type: physicochemical
A549 [5] = test: Induction of apoptosis in DMBA-stimulated PTX resistant human A549 cells assessed as apoptosis rate at 5 uM incubated for 24 hrs by flow cytometry (reference value: 6.67 +/- 1.03%); assay type: functional
CYP1A1 versus CYP1B1 = test: as §1; assay type: ADME; details: recombinant CYP1A1 and recombinant CYP1B1, read-out: Ratio IC50
A549 [6] = test: Inhibition of tumor metastasis in DMBA-stimulated PTX resistant human A549 cells assessed as inhibition of cell migration by measuring decrease in crawling ability of cells at 2.5 to 10 uM incubated for 48 hrs by wound healing assay; assay type: functional, cell-based; details: dose 2.5-10 µM

SMILES	inhibition at 35 min, 0.01 µM (CYP1B1 [1]) [%]	inhibition at 35 min, 1 µM (CYP1B1 [2]) [%]	also measured
Nc1nc(-c2cccc(Cl)c2)nc2c1ccc1ccccc12	14	94.2	
O=c1[nH]c(-c2ccc(Br)cc2)nc2ccccc12	69.5	94.5	
Cc1ccc(-c2nc(N)c3ccc4ccccc4c3n2)cc1	-13.1	75.3	
OCCNc1nc(-c2ccc(I)cc2)nc2ccccc12	68.5	96.5	
Nc1nc(-c2ccc(C(=O)O)cc2)nc2ccccc12	20.2	-2.32	
CCCCNc1nc(-c2ccc(I)cc2)nc2ccccc12	21.8	86.4	
Nc1nc(-c2ccccc2)nc2ccccc12	-13.5	65.5	
Cl.Nc1nc(-c2ccc(I)cc2)nc2ccccc12	94.5	96.7	IC50 (Cytochrome P450 1B1): 0.02 nM; IC50 (Cytochrome P450 1A1): 12.3 nM; IC50 (Cytochrome P450 1A2): 2030 nM; Ratio IC50 [3]: 617.5; selectivity ratio (CYP1A2 versus CYP1B1): 101000; logP ([4]; octanol/water): 2.71; Activity (A549 [5]): 18.53%
Nc1nc(-c2ccc(Cl)nc2)nc2ccccc12	6.96	68	
Nc1nc(-c2cccc(F)c2)nc2c1ccc1ccccc12	10.5	94.5	
Nc1nc(-c2cccc(C(=O)O)c2)nc2ccccc12	22.4	10.2	
NCCNc1nc(-c2ccc(I)cc2)nc2ccccc12	-6.11	39.5	
Nc1nc(-c2cccc(F)c2)nc2ccccc12	-1.45	78.9	
CN(C)c1nc(-c2ccc(I)cc2)nc2ccccc12	65.4	95.5	
Nc1nc(-c2ccc(Oc3ccc(Cl)cc3Cl)cc2)nc2ccccc12	1.94	27.6	
Ic1ccc(-c2nc(N3CCCCC3)c3ccccc3n2)cc1	13.8	91.1	
Nc1nc(-c2ccccc2)nc2c1ccc1ccccc12	6.15	93.5	
Nc1nc(-c2ccc(Cl)cc2)nc2c1ccc1ccccc12	69.4	95.4	
Nc1nc(-c2cccc(I)c2)nc2ccccc12	66.4	96.7	
COc1cccc(-c2nc(N)c3ccccc3n2)c1	10.1	91.7	
CCCNc1nc(-c2ccc(I)cc2)nc2ccccc12	67.8	94.2	
COc1cccc(-c2nc(N)c3ccc4ccccc4c3n2)c1	3.87	94.8	

SMILES	inhibition at 35 min, 0.01 µM (CYP1B1 [1]) [%]	inhibition at 35 min, 1 µM (CYP1B1 [2]) [%]	also measured
COC(=O)c1ccc(-c2nc(N)c3ccccc3n2)cc1	15.9	92.7	
COC(=O)c1cccc(-c2nc(N)c3ccccc3n2)c1	28.4	1.98	
Nc1nc(-c2ccc(Br)cc2)nc2ccccc12	82.7	96.4	IC50 (Cytochrome P450 1B1): 0.49 nM; IC50 (Cytochrome P450 1A1): 104 nM; IC50 (Cytochrome P450 1A2): 1990 nM; selectivity ratio (CYP1A1 versus CYP1B1): 211; selectivity ratio (CYP1A2 versus CYP1B1): 4060; logP ([4]; n-octanol/water, read-out: logP): 2.12
Nc1nc(-c2ccc(F)cc2)nc2c1ccc1ccccc12	11	95	
Nc1nc(-c2ccc(F)cc2)nc2ccccc12	3.73	80.7	
Nc1nc(-c2ccc(I)cc2)nc2ccccc12			inhibition (A549 [6]): Active
CC(C)Nc1nc(-c2ccc(I)cc2)nc2ccccc12	32.8	95.3	
C#CCOc1ccc(-c2nc(N)c3ccccc3n2)cc1	74.4	96	
Nc1nc(-c2cccc(Br)c2)nc2ccccc12	13.2	55.4	
Nc1nc(-c2ccc(I)cc2)nc2c1ccc1ccccc12	63.1	88.5	
Ic1ccc(-c2nc(N3CCCC3)c3ccccc3n2)cc1	39.8	94.9	
Nc1nc(-c2ccc(Br)cc2)nc2c1ccc1ccccc12	80.6	95.4	IC50 (Cytochrome P450 1B1): 3.07 nM; IC50 (Cytochrome P450 1A1): 28.1 nM; IC50 (Cytochrome P450 1A2): 784 nM; selectivity ratio (CYP1A1 versus CYP1B1): 9.16; selectivity ratio (CYP1A2 versus CYP1B1): 256
Nc1nc(-c2ccc(Br)nc2)nc2ccccc12	12.8	73.4	
Cc1ccc(-c2nc(N)c3ccccc3n2)cc1	89.6	97.8	IC50 (Cytochrome P450 1B1): 1.69 nM; IC50 (Cytochrome P450 1A1): 263 nM; IC50 (Cytochrome P450 1A2): 5340 nM; selectivity ratio (CYP1A1 versus CYP1B1): 156; selectivity ratio (CYP1A2 versus CYP1B1): 3160
Nc1nc(-c2cccc(Cl)c2)nc2ccccc12	25.8	74.4	
COc1ccc(-c2nc(N)c3ccc4ccccc4c3n2)cc1	44.2	95.2	
Ic1ccc(-c2nc(NCc3ccccc3)c3ccccc3n2)cc1	2	91.2	
COc1ccc(-c2nc(N)c3ccccc3n2)cc1	84.1	91.8	IC50 (Cytochrome P450 1B1): 2.48 nM; IC50 (Cytochrome P450 1A1): 248 nM; IC50 (Cytochrome P450 1A2): 5840 nM; selectivity ratio (CYP1A1 versus CYP1B1): 99.9; selectivity ratio (CYP1A2 versus CYP1B1): 2360
Ic1ccc(-c2nc(Nc3ccccc3)c3ccccc3n2)cc1	7.25	60.4	
Nc1nc(-c2ccc(Cl)cc2)nc2ccccc12	68.4	96	
Ic1ccc(-c2nc(N3CCOCC3)c3ccccc3n2)cc1	51.8	93.8	
Nc1nc(-c2cccc(Br)c2)nc2c1ccc1ccccc12	-12.8	93.8	
